The record followed here is patent US5859026A, “Quinoline carboxylic acid” (priority 1995, dated 1999).

Common to all, as to test: Antibacterial activity (MIC), standard strain
Holding throughout (format): cell-based

In one assay the test system is E. colacae 963. As to conditions: Enterobacter cloacae; standard strain E. colacae 963, Gram -, 10^6 viable cells per ml; read-out: minimum inhibitory concentration (MIC). The procedure: (§1) 1. Antibacterial spectrum against standard strains and clinically isolated strains
Antibacterial activities (minimum inhibitory concentration: MIC) were determined according to the standard method of the Japan Society of Chemotherapy (Chemotherapy (Tokyo), 29 (1), 76, 1981) by using standard strains and strains isolated from patients of infectious disease (clinically isolated strains) and applying 10^6 viable cells per ml. […].

In a further assay the test system is K. pneumoniae PCI-602. As to conditions: Klebsiella pneumoniae, PCI602; standard strain K. pneumoniae PCI-602, Gram -, 10^6 viable cells per ml; read-out: minimum inhibitory concentration (MIC).
Source text: as §1

The next assay concerns E. coli NIHJ JC-2. Particulars: Escherichia coli, NIHJJC2; standard strain E. coli NIHJ JC-2, Gram -, 10^6 viable cells per ml; read-out: minimum inhibitory concentration (MIC).
Source text: as §1

The next assay has as its system S. aureus FDA 209P JC-1. Particulars: Staphylococcus aureus, FDA209P; standard strain S. aureus FDA 209P JC-1, Gram +, 10^6 viable cells per ml; read-out: minimum inhibitory concentration (MIC).
Source text: as §1

A further assay relates to S. marcescens IAM 1184. As to conditions: Serratia marcescens, IAM1184; standard strain S. marcescens IAM 1184, Gram -, 10^6 viable cells per ml; read-out: minimum inhibitory concentration (MIC).
Source text: as §1

Values after ≈ are worked out from the molar mass of the structure shown.

With `Cc1c(N2CCNCC2)c(F)c(N)c2c(=O)c(C(=O)O)cn(C3CC3)c12` [Reference Compound B, 5-amino-1-cyclopropyl-6-fluoro-1,4-dihydro-8-methyl-4-oxo-7-piperazinylquinoline-3-carboxylic acid, reference compound], the MIC with E. colacae 963 was 0.1 µg/mL (≈ 0.277 µM); with K. pneumoniae PCI-602 it was 0.006 µg/mL (≈ 0.0166 µM); in the assay with E. coli NIHJ JC-2 it was 0.05 µg/mL (≈ 0.139 µM); in the assay with S. aureus FDA 209P JC-1, 0.1 µg/mL (≈ 0.277 µM); in the assay with S. marcescens IAM 1184 it was 0.2 µg/mL (≈ 0.555 µM).
